From BindingDB's records for doi:10.7270/Q2736PBV (Broad Institute, 2009) come the findings set out here.

The target in the experiment is T1, Streptokinase A (Streptococcus pyogenes serotype M1, UniProt P10520).
T1 sequence (P10520 whole entry): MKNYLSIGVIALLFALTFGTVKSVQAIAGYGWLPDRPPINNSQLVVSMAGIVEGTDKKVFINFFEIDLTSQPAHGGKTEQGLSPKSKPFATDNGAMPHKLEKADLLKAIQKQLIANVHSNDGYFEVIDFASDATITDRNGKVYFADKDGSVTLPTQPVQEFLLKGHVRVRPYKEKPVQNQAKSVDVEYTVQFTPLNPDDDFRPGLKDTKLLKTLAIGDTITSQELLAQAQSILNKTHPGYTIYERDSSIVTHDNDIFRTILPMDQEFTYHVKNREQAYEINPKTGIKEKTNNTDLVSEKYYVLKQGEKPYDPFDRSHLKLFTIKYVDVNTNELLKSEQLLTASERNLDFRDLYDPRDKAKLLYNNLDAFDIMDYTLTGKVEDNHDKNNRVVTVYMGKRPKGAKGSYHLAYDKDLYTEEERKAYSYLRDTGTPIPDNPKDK
Kind of experiment: S. pyogenes streptokinase expression inhibitors, potency, dose response, plasminogen activation absorbance, OD405 (AID 1914).
One may read the EC50 as the concentration giving half of the maximal effect. A higher EC50 goes with a need for much substance. With `CN(C)c1ccc(C2CC(c3ccc(Cl)cc3OC(F)F)=Nc3ncnn32)cc1` (configuration not stated), the concentration for a half-maximal effect (EC50) was > 150 µM.

Regarding `CCc1ccc2[nH]c(=O)c(C3c4ccc5cccnc5c4OC(=N)C3C#N)cc2c1` (configuration not stated), the EC50 was > 150 µM.

For `COc1ccc(OC)c(NC=C2C(=O)NC(=S)N(Cc3ccccc3)C2=O)c1`, the EC50 was > 150 µM.

For the compound `O=C1C=CC([N+](=O)[O-])=CC1/C=N/NC(=O)C(O)(c1ccccc1)c1ccccc1` (configuration not stated), the EC50 was > 150 µM.

For `CCCCCCC(N=O)c1ccccn1` (configuration not stated), the concentration giving a half-maximal response (EC50) was > 150 µM.

Take `C=CCn1c(-n2c(O)cc(Cc3ccccc3)c2O)nc2ccccc21`: the EC50 was > 150 µM.

In the case of `Cc1cc(C)c(N=Nc2c(C)[nH]n(C(N)=S)c2=O)c(C)c1`, the 50% effective concentration (EC50) is > 150 µM.

In turn, `C=c1c(C#N)c(N)[nH]c2c(C#N)c(C)c(=Cc3ccc(C)cc3)c1=2` registered an EC50 of 12.3 µM.

In the case of `C=CCn1c(SCC(=O)C(C#N)C(C)=N)nc2sc(C)c(C)c2c1=O` (configuration not stated), the EC50 was > 150 µM.

For the compound `COc1cc(CN=Nc2nc(Nc3ccc(C)cc3)nc(-n3nc(C)cc3C)n2)cc(OC)c1OC`, the concentration giving a half-maximal response (EC50) is > 150 µM.

Consider `O=C1Nc2ccccc2SC1C=Nc1cccc(Cl)c1` (configuration not stated), for which the EC50 is > 150 µM.

Regarding `Cc1nn(-c2ccccc2)c(C)c1CN=Nc1nc2ccccc2[nH]1`, the EC50 is > 150 µM.

Consider `CCC(C)N1C(=O)C(=CNNc2ccccc2)C(=O)NC1=S` (configuration not stated), for which the EC50 was > 150 µM.

In the case of `O=C(Oc1cccc(CN=Nc2nc(Nc3ccccc3)nc(N3CCOCC3)n2)c1)c1ccco1`, the 50% effective concentration (EC50) was > 150 µM.

In turn, `Cc1sc2ncnc(N=NCc3ccccc3O)c2c1C` displayed an EC50 of 8.21 µM.

With `CC(N=Nc1ccc(Cl)c(Cl)c1)c1ccc(-n2ccnc2)cc1` (configuration not stated), it took 17.2 µM to reach a half-maximal effect (EC50).

As for `CC(N=Nc1nc2ccccc2s1)c1ccc2c(c1)OCO2` (configuration not stated), the EC50 is > 150 µM.

For the compound `N#CC(C(=O)c1ccc([N+](=O)[O-])o1)c1nc2ccccc2[nH]1` (configuration not stated), a half-maximal effect (EC50) was put at 27.6 µM.

On to `O=C1C([N+](=O)[O-])=CC(Cl)=CC1CN=Nc1nc2ccccc2s1` (configuration not stated), for which the half-maximal effective concentration (EC50) is > 150 µM.

In turn, `S=C1N=C(C23CC4CC(CC(C4)C2)C3)CC(c2ccc3c(c2)OCO3)N1` (configuration not stated) gave an EC50 of 22.5 µM.

As to `O=C1C(=NNC(=S)Nc2ccccc2F)c2ccccc2N1Cc1ccc(F)cc1`, a half-maximal effect (EC50) was put at 0.607 µM.

Regarding `CCOc1ccc(NC(=S)NNC2=c3ccccc3=NC2=O)cc1`, the EC50 is > 150 µM.

In the case of `Cc1cc(C)nc(N=NCc2cc(Br)ccc2O)n1`, the EC50 is > 150 µM.

Regarding `COC1=CC([N+](=O)[O-])=CC(/C=N/NC(=O)c2cc(-c3ccccc3)nc3ccccc23)C1=O` (configuration not stated), the half-maximal effective concentration (EC50) is > 150 µM.

Turning to `Cc1cc(N=NC(C)c2ccccc2O)nc(-c2ccccc2O)n1` (configuration not stated), a half-maximal response (EC50) required 14 µM.

As to `COc1cccc(-n2c(O)c3[nH][nH]c(C(=O)CN4C(=O)c5ccccc5C4=O)c-3c2=O)c1`, the EC50 is > 150 µM.

As for `Cc1ccc2nc(-n3c(O)c[nH]c3=S)sc2c1`, the EC50 is > 150 µM.

Consider `COc1ccc(CC(=O)N/N=C/C2C=C([N+](=O)[O-])C=C(Br)C2=O)cc1` (configuration not stated), for which the half-maximal effective concentration (EC50) was > 150 µM.

As for `CN(C)c1ccc(CN=Nc2nc3ccccc3o2)cc1`, the EC50 was > 150 µM.

Take `O=C(N/N=C/C1C=C([N+](=O)[O-])C=CC1=O)c1cccc(NC(=O)c2cccc(Cl)c2)c1` (configuration not stated): the concentration giving a half-maximal response (EC50) is > 150 µM.

`CCOC(=O)c1sc(N2C(=O)C(=O)C(C(=O)c3ccco3)C2c2cccc(Cl)c2)nc1C` (configuration not stated): the EC50 is > 150 µM.

`CC(=NNC(=N)Sc1cc(O)n(-c2ccc(Cl)c(Cl)c2)c1O)c1cccs1` [1-(3,4-dichlorophenyl)-2,5-dioxo-3-pyrrolidinyl 2-[1-(2-thienyl)ethylidene]hydrazinecarbimidothioate]: the EC50 is 7.44 µM.

As to `CCc1ccc2nc(N3C(=O)C(=O)C(C(=O)c4ccco4)C3c3cccs3)sc2c1` (configuration not stated) [1-(6-ethyl-1,3-benzothiazol-2-yl)-3-(furan-2-ylcarbonyl)-4-oxidanyl-2-thiophen-2-yl-2H-pyrrol-5-one], the EC50 was > 150 µM.

Turning to `Oc1cc(N(CCc2ccccc2)C(=S)Nc2ccccc2)c(O)n1-c1ccc(Br)cc1` [1-[1-(4-bromophenyl)-2,5-bis(oxidanylidene)pyrrolidin-3-yl]-3-phenyl-1-(2-phenylethyl)thiourea], the EC50 stood at 2.67 µM.

Take `O=C1N=c2ccccc2=C1NNC(=S)NCCc1ccccc1` [1-[(2-oxo-3-indolyl)amino]-3-(2-phenylethyl)thiourea]: the EC50 was > 150 µM.

As to `O=C1C(=NNC(=S)Nc2ccccc2F)c2ccccc2N1Cc1cccc(Cl)c1` [1-[(Z)-[1-[(3-chlorophenyl)methyl]-2-oxoindol-3-ylidene]amino]-3-(2-fluorophenyl)thiourea], the EC50 was > 150 µM.

With `C[n+]1ccc(CN=Nc2nc(Cl)c(C#N)c(Cl)c2Cl)cc1` [2,4,5-trichloro-6-[2-[(1-methylpyridin-1-ium-4-yl)methylidene]hydrazinyl]pyridine-3-carbonitrile;chloride], the EC50 is > 150 µM.

Turning to `CC(N=Nc1nc(-c2ccccc2F)nc2ccccc12)c1ccccc1O` (configuration not stated) [2-(1-{[2-(2-Fluoro-phenyl)-quinazolin-4-yl]-hydrazono}-ethyl)-phenol], the concentration for a half-maximal effect (EC50) is > 150 µM.

Take `COc1ccccc1Nc1oc2cc(=O)ccc-2cc1C(N)=O` [2-(2-methoxyanilino)-7-oxo-1-benzopyran-3-carboxamide]: the 50% effective concentration (EC50) was > 150 µM.

On to `Cc1ccc(C(=O)C2C(=O)C(=O)N(Cc3ccco3)C2c2cccc(Br)c2)o1` (configuration not stated) [2-(3-bromophenyl)-1-(2-furanylmethyl)-4-hydroxy-3-[(5-methyl-2-furanyl)-oxomethyl]-2H-pyrrol-5-one], for which the half-maximal effective concentration (EC50) is > 150 µM.

In turn, `Oc1nc(Nc2ccc(Cl)cc2)sc1Cc1cccc(Cl)c1Cl` [2-(4-chloroanilino)-5-(2,3-dichlorobenzyl)-2-thiazolin-4-one] displayed an EC50 of 131 µM.

In the case of `Oc1nc(Nc2ccc(Cl)cc2)sc1Cc1cc(Cl)ccc1Cl` [2-(4-chloroanilino)-5-(2,5-dichlorobenzyl)-2-thiazolin-4-one], the concentration for a half-maximal effect (EC50) is > 150 µM.

`Cc1[nH]c2ccccc2c1/C=C1\N=C(c2ccc(F)cc2)OC1=O` [2-(4-fluorophenyl)-4-[(2-methyl-1H-indol-3-yl)methylene]-1,3-oxazol-5(4H)-one] gave an EC50 of 16.6 µM.

In turn, `Cc1ccc(Nc2nc(N=NCc3ccc4c(c3)OCO4)nc(N3CCOCC3)n2)cc1` [2-N-(1,3-benzodioxol-5-ylmethylideneamino)-4-N-(4-methylphenyl)-6-morpholin-4-yl-1,3,5-triazine-2,4-diamine] came in with an EC50 of 111 µM.

In the case of `O=C(O)c1ccccc1N=NCc1cc(Br)cc(Br)c1O` [2-[2-[(E)-(3,5-dibromo-6-oxocyclohexa-2,4-dien-1-ylidene)methyl]hydrazinyl]benzoic acid], the EC50 stood at 32.4 µM.

On to `Cc1nn(-c2ccccc2)c(Cl)c1C1C2=C(CCCC2=O)OC(=N)C1C#N` (configuration not stated) [2-azanyl-4-(5-chloranyl-3-methyl-1-phenyl-pyrazol-4-yl)-5-oxidanylidene-4,6,7,8-tetrahydrochromene-3-carbonitrile], for which the concentration for a half-maximal effect (EC50) is > 150 µM.

On to `Cc1nn(-c2ccccc2)c(Cl)c1C1C2=C(CC(C)(C)CC2=O)OC(=N)C1C#N` (configuration not stated) [2-azanyl-4-(5-chloranyl-3-methyl-1-phenyl-pyrazol-4-yl)-7,7-dimethyl-5-oxidanylidene-6,8-dihydro-4H-chromene-3-carbonitrile], for which the EC50 is > 150 µM.

The compound `Cc1ccc(NN=C(C=O)C(=O)c2ccc(Cl)cc2)cc1` [3-(4-chlorophenyl)-2-[(4-methylphenyl)hydrazinylidene]-3-oxopropanal] gave a concentration for a half-maximal effect (EC50) of 50 µM. This lies in the double-digit micromolar range.

Take `COc1ccc2nc(-n3c(O)c[nH]c3=S)sc2c1` [3-(6-methoxy-1,3-benzothiazol-2-yl)-2-sulfanylidene-imidazolidin-4-one]: the EC50 was > 150 µM.

In the case of `CCOc1cc(CN=Nc2cccc(C(=O)O)c2)ccc1OC(=O)c1ccccc1` [3-[(N''E)-N''-(4-benzoyloxy-3-ethoxy-benzylidene)hydrazino]benzoic acid], the 50% effective concentration (EC50) was > 150 µM.

`CCOC(=O)C1C(=N)Oc2ccc3ccccc3c2C1c1ccc(O)cc1` (configuration not stated) [3-amino-1-(4-hydroxyphenyl)-1H-benzo[f][1]benzopyran-2-carboxylic acid ethyl ester] registered a half-maximal effective concentration (EC50) of 11.5 µM.

In the case of `Cc1cccc(NC(=O)C2=C(N)C(C(=O)N3CCOCC3)/C(=N/c3c(C)cccc3C)S2)c1` (configuration not stated) [3-amino-5-(2,6-dimethylphenyl)imino-N-(3-methylphenyl)-4-(morpholine-4-carbonyl)-2H-thiophene-2-carboxamide], the response was half-maximal at 3.32 µM (EC50).

With `CCCCCCn1[nH]c(C)c(C(=O)c2ccc(Cl)cc2)c1=O` [4-(4-Chloro-benzoyl)-2-hexyl-5-methyl-2,4-dihydro-pyrazol-3-one], the 50% effective concentration (EC50) is > 150 µM.

The compound `C=CCOC(=O)C1=C(C)N=C(SCC)C(C#N)C1c1ccc(Cl)cc1` (configuration not stated) [4-(4-Chloro-phenyl)-5-cyano-6-ethylsulfanyl-2-methyl-1,4-dihydro-pyridine-3-carboxylic acid allyl ester] had an EC50 of 8.34 µM.

With `C=c1[nH]n(-c2ccccc2)c(=O)c1=C(C=Cc1cccc(OC)c1OC)c1ccc(Br)cc1` [4-[1-(4-Bromo-phenyl)-3-(2,3-dimethoxy-phenyl)-allylidene]-5-methyl-2-phenyl-2,4-dihydro-pyrazol-3-one], the half-maximal effective concentration (EC50) is > 150 µM.

Turning to `O=C(O)c1ccc(N=NCc2ccc(OC(=O)c3cccc(Cl)c3)cc2)cc1` [4-[2-[[4-[(3-chlorophenyl)-oxomethoxy]phenyl]methylidene]hydrazinyl]benzoic acid], the EC50 is > 150 µM.

For the compound `CNC(=Nc1cc(Cl)ccc1Cl)Sc1cc(O)n(-c2ccc(C(=O)OC)cc2)c1O` [4-[3-[[(2,5-dichloroanilino)-methyliminomethyl]thio]-2,5-dioxo-1-pyrrolidinyl]benzoic acid methyl ester], the EC50 was determined as 50 µM.
